Source: patent publication US6162805A, “Use of an NK-1 receptor antagonist and an SSRI for treating obesity” (Merck Sharp & Dohme Limited, priority 1997, dated 2000)
Like-named read-outs stand apart in the source and are kept apart here.

Columns and labels:
foot tapping in gerbils = test: Gerbil Foot-Tapping; format: in vivo, Mongolian gerbil; details: Meriones unguiculatus, iv, i.v.
Text: CNS-penetrant NK-1 receptor antagonists for use in the present invention can be identified by their ability to inhibit foot tapping in gerbils induced by anxiogenic agents (such as pentagastrin) or central infusion of NK-1 receptor agonists such as GR73632, or caused by aversive stimulation such as foot shock or single housing, based on the method of Rupniak & Williams, Eur. J. Pharmacol., 1994, 265, 179. […] Alternatively, test compounds may be administered orally or by subcutaneous or intraperitoneal routes. A skin incision is then made in the midline of the scalp to expose the skull. An anxiogenic agent (e.g. pentagastrin) or a selective NK-1 receptor agonist (e.g. GR73632 ([…] ]-substance P-(7-11)) is infused directly into the cerebral ventricles (e.g. 3 pmol in 5 μl i.c.v., depending on test substance) by vertical insertion of a cuffed 27 gauge needle to a depth of 4.5 mm below bregma. The scalp incision is closed and the animal allowed to recover from anaesthesia in a clear perspex observation box (approximately 25 cm×20 cm×20 cm). The duration and/or intensity of hind foot tapping is then recorded continuously for approximately 5 minutes. Alternatively, the ability of test compounds to inhibit foot tapping evoked by aversive stimulation, such as foot shock or single housing, may be studied using a similar method of quantification.

[1] = test system: cisplatin-induced emesis in ferrets; test: Ferret Emesis (cisplatin-induced); format: in vivo; details: Mustela putorius, po, read-out: ferret emesis ID90
Protocol: Ten minutes later they are fed with approximately 100 g of tinned cat food. At 60 minutes following oral dosing, cisplatin (10 mg/kg) is given i.v. via a jugular vein catheter inserted under a brief period of halothane anaesthesia. The catheter is then removed, the jugular vein ligated and the skin incision closed. The ferrets recover rapidly from the anaesthetic and are mobile within 10-20 minutes. The animals are observed continuously during recovery from the anaesthetic and for 4 hours following the cisplatin injection, after which time the animals are killed humanely. The numbers of retches and vomits occurring during the 4 hours after cisplatin administration are recorded by trained observers.

[2] = test system: separation-induced vocalisations in guinea-pig pups; test: Separation-Induced Vocalisation in guinea-pig pups; format: in vivo; details: for ED50: Cavia porcellus, read-out: guinea-pig vocalisation ID50; for attenuation of separation-induced vocalisations compared with baseline: 30 minutes previously
Text: Male and female guinea-pigs pups are housed in family groups with their mothers and littermates throughout the study. Experiments are commenced […] when the pups are at least 2 weeks old. Before entering an experiment, the pups may be screened to ensure that a vigorous vocalisation response is reproducibly elicited following maternal separation. The pups are placed individually in an observation cage (approximately 55 cm×39 cm×19 cm) in a room physically isolated from the home cage for approximately 15 minutes and the duration and/or number of vocalisation during this baseline period is recorded. […] On test days each pup receives an oral dose or an s.c. or i.p. injection of test compound or vehicle and is then immediately returned to the home cage with its mother and siblings for at least 30 to 60 minutes (or for up to 4 hours following an oral dose, dependent upon the oral pharmacokinetics of the test compound) before social isolation for 15 minutes as described above. The duration and/or number of vocalisation on drug treatment days may be expressed as a percentage of the pre-treatment baseline value for each animal or compared with values obtained in vehicle-treated animals. The same subjects may be retested once weekly for up to 6 weeks. Between 6 and 8 animals receive each test compound at each dose tested.
(v) Determine activity of compounds in assays sensitive to conventional serotonergic drugs (inhibition of pharmacologically evoked foot tapping in gerbils and/or inhibition of distress vocalisations in guinea-pig pups (Assay 4)).

[3] = 5 min, read-out: gerbil foot-tapping (5 mins.) ID50
[4] = 24 hrs., read-out: gerbil foot-tapping (24 hrs.) ID50

Question: `C[C@@H](O[C@H]1OCCN(Cc2n[nH]c(=O)[nH]2)[C@H]1c1ccc(F)cc1)c1cc(C(F)(F)F)cc(C(F)(F)F)c1` [2-(R)-(1-(R)-(3,5-bis(trifluoromethyl)phenyl)-ethoxy)-3-(S)-(4-fluorophenyl)-4-(3-(5-oxo-1H,4H-1,2,4-triazolo)methyl)-morpholine] was tested. Which ED50 (foot tapping in gerbils; [3]) did it give?
Answer: 0.36 mg/kg

Question: And the ED50 (foot tapping in gerbils; [4])?
Answer: 0.33 mg/kg

Question: And the ED90 [1]?
Answer: < 3 mg/kg

Question: What about the ED50 ([2]; po, 4 hrs. pretreatment) of the same compound?
Answer: 0.73 mg/kg

Question: Which ED50 (foot tapping in gerbils; [3]) does the source give for `C[C@@H](O[C@H]1OCCN(Cc2nn[nH]c2CN(C)C)[C@H]1c1ccccc1)c1cc(C(F)(F)F)cc(C(F)(F)F)c1` [Test Compound A, 2-(R)-(1-(R)-(3,5-bis(trifluoromethyl)phenyl)ethoxy)-4-(5-(dimethylamino)methyl-1,2,3-triazol-4-yl)methyl-3-(S)-phenylmorpholine] here?
Answer: 0.12 mg/kg

Question: What about the ED50 (foot tapping in gerbils; [4]) of the same compound?
Answer: 0.17 mg/kg

Question: What about the “attenuation of separation-induced vocalisations compared with baseline” value ([2]; 0.25 mg/kg s.c. alone) of the same compound?
Answer: approximately 25%

Question: And the ED50 ([2]; sc)?
Answer: 0.5 mg/kg

Question: With `C[C@@H](O[C@@H]1OCCN(Cc2nn[nH]c2CN(C)C)[C@@H]1c1ccccc1)c1cc(C(F)(F)F)cc(C(F)(F)F)c1` [Test Compound B, 2-(S)-(1-(R)-(3,5-bis(trifluoromethyl)phenyl)ethoxy)-4-(5-(dimethylamino)methyl-1,2,3-triazol-4-yl)methyl-3-(R)-phenylmorpholine, reference compound] as the compound, how does the “attenuation of separation-induced vocalisations, administered alone” value ([2]; 0.25 mg/kg s.c. alone (FIG. 1)) read?
Answer: failure of the less active enantiomer, Test Compound B (0.25 mg/kg s.c.) to attenuate separation-induced vocalisations when administered alone

Question: `CNCCC(Oc1ccc(C(F)(F)F)cc1)c1ccccc1` (stereo not shown) [fluoxetine, reference compound] was tested. Which “attenuation of separation-induced vocalisations compared with baseline” value ([2]; 2 mg/kg i.p. alone) did it give?
Answer: approximately 25%
